# Experimental data: patent EP0468448B1, “Analogs of hirudin having antiplatelet activity” (MERRELL PHARMACEUTICALS INC., priority 1990, dated 1992)
# Numbered stars: 1 amine (or outer) side, 2 acyl side, 3 side chain; on linkers, the order of the positions; unused ones are H or OH. Square brackets hold non-standard residues; d marks the D form. Peptide text beside a SMILES is read from it. Cha = N[C@@H](CC1CCCCC1)C(=O)O; Suc = O=C(CCC(=O)[*:2])[*:1]; Ava = NCCCCC(=O)O
# System: platelet
# Experiment: Dog antiplatelet activity
# Format: cell-based
# Conditions: read-out: Dog Antiplatelet IC₅₀
row,Compound,IC50 [µM]
1,"CC[C@H](C)[C@H](NC(=O)[C@@H]1CCCN1C(=O)[C@H](CCC(=O)O)NC(=O)[C@H](Cc1ccc(OC)cc1)NC(=O)[C@H](CC(=O)O)NC(=O)CNC(=O)CCCCNC(=N)N)C(=O)N1CCC[C@H]1C(=O)N[C@@H](CCC(=O)O)C(=O)N[C@@H](CCC(=O)O)C(=O)N[C@@H](C)C(=O)N[C@@H](CC1CCCCC1)C(=O)N[C@H](CCC(=O)O)C(=O)O [Example 5, 5GP-Gly-Asp-Tyr(OCH₃)-Glu-Pro-Ile-Pro-Glu-Glu-Ala-Cha-glu-OH]",10
2,"CC[C@H](C)[C@H](NC(=O)[C@@H]1CCCN1C(=O)[C@H](CCC(=O)O)NC(=O)[C@H](Cc1ccc(OC)cc1)NC(=O)[C@H](CC(=O)O)NC(=O)CNC(=O)CCCCN)C(=O)N1CCC[C@H]1C(=O)N[C@@H](CCC(=O)O)C(=O)N[C@@H](CCC(=O)O)C(=O)N[C@@H](C)C(=O)N[C@@H](CC1CCCCC1)C(=O)N[C@H](CCC(=O)O)C(=O)O [Example 3, 5AP-Gly-Asp-Tyr(OCH₃)-Glu-Pro-Ile-Pro-Glu-Glu-Ala-Cha-glu-OH]",280

# Next, values leading:
row,IC50 [µM],Compound
1,6,CC[C@H](C)[C@H](NC(=O)[C@@H]1CCCN1C(=O)[C@H](CCC(=O)O)NC(=O)[C@H](Cc1c[nH]c2ccccc12)NC(=O)[C@H](CC(=O)O)NC(=O)CNC(=O)CCCCNC(=N)N)C(=O)N1CCC[C@H]1C(=O)N[C@@H](CCC(=O)O)C(=O)N[C@@H](CCC(=O)O)C(=O)N[C@@H](C)C(=O)N[C@@H](CC1CCCCC1)C(=O)N[C@H](CCC(=O)O)C(=O)O [Example 1]
2,42,CC[C@H](C)[C@H](NC(=O)[C@@H]1CCCN1C(=O)[C@H](CCC(=O)O)NC(=O)[C@H](Cc1ccc(O)cc1)NC(=O)CCC(=O)O)C(=O)N1CCC[C@H]1C(=O)N[C@@H](CCCNC(=N)N)C(=O)NCC(=O)N[C@@H](CC(=O)O)C(=O)N[C@@H](Cc1ccccc1)C(=O)N[C@H](CCC(=O)O)C(=O)O [Example 4] (Suc-YEPIPRGDF[dE]-OH)
3,250,CC[C@H](C)[C@H](NC(=O)[C@H](CCC(=O)O)NC(=O)[C@H](CCC(=O)O)NC(=O)[C@H](Cc1c[nH]c2ccccc12)NC(=O)[C@H](CC(=O)O)NC(=O)CNC(=O)CCCCN)C(=O)N1CCC[C@H]1C(=O)N[C@@H](CCC(=O)O)C(=O)N[C@@H](CCC(=O)O)C(=O)N[C@@H](C)C(=O)N[C@@H](CC1CCCCC1)C(=O)N[C@H](CCC(=O)O)C(=O)O [Example 2] (H-[Ava]GDWEEIPEEA[Cha][dE]-OH)
